Results: patent publication US11066414B2, “Cot modulators and methods of use thereof” (Gilead Sciences, Inc., priority 2015, dated 2021)
Read-outs that look alike come from different tables or passages of the source.

Columns and labels:
Human Cot = Human Cot (Homo sapiens (Human), UniProt P41279); assay: High Throughput Cot Biochemical Assay
TNFα = assay: Cot Monocyte TNFα Cell Based Assay
Experimental: The cell suspension was then plated at a density of 5,000 cells/well onto black 384 well Greiner clear bottom plates. Plates were pre-spotted with test compounds and serially diluted in DMSO where 200 nL/well were delivered using the Echo 550 acoustic liquid dispenser (Labcyte®) for a final DMSO concentration of 0.5%. Plated cells were treated with compound for 1 hour at 37° C. Cells were then stimulated with 50 pg/ml of LPS (Sigma) excluding outside columns of plate used for unstimulated cell control wells. Cells were incubated for an additional 4 hours at 37° C. Cells were then spun out of the media and 5 μl of sample were taken and analyzed for total TNFα content using the TR-FRET Human TNFα detection system (CisBio). This system utilizes two labeled antibodies (cryptate and XL665) that bind to two different epitopes of the TNFα molecule and produce FRET signal proportional to the concentration of TNFα in the sample. […] Plates were covered with clear seals and incubated at room temp overnight. […] Percent of control was calculated as follows: % Control=100×(RatioSample−Ratio0% Stimulation)/(Ratio100% Stimulation−Ratio0% Stimulation) where unstimulated cells (0% stimulation) were the negative control and stimulated cells (100% stimulation) were used as the positive control.

[1] = IC50 HTRF, Cot HTRF (TR-FRET) biochemical assay
[2] = Homo sapiens, Monocyte, read-out: EC50 TNF, LPS-stimulated human monocytes, TNFα
[3] = IC50 HTRF, Cot HTRF (TR-FRET KinEASE) biochemical assay, 400 μM ATP
[4] = Homo sapiens, Monocyte, read-out: EC50 TNF, LPS-stimulated human monocytes, TNFα TR-FRET

Human Cot, sequence (P41279 30-397): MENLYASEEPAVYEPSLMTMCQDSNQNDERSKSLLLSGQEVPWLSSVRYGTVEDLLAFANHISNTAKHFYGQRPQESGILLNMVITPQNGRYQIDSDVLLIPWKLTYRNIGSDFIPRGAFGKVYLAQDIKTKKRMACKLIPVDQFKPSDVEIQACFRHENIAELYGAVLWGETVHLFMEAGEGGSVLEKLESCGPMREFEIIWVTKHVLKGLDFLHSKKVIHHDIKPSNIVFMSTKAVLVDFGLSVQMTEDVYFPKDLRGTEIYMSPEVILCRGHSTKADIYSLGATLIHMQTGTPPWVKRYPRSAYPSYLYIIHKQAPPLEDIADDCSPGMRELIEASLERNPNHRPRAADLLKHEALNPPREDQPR

Compound | IC50 (Human Cot; [1]) [nM] | EC50 (TNFα; [2]) [nM] | other results
CC(C)(C)CNc1c(C#N)cnc2c(Cl)cc(N[C@H](c3cn(C4(C(N)=O)CC4)nn3)c3cccc4cnccc34)cc12 [Example 561, (S)-1-(4-(((8-chloro-3-cyano-4-(neopentylamino)quinolin-6-yl)amino) (isoquinolin-5-yl)methyl)-1H-1,2,3-triazol-1-yl)cyclopropane-1-carboxamide] | 2 | 433 | –
CC(C)(C)CNc1c(C#N)cnc2c(Cl)cc(N[C@H](c3cn(C4(C(F)(F)F)CC4)nn3)c3cccc4cnc(Cl)cc34)cc12 [Example 915, (S)-8-chloro-6-(((3-chloroisoquinolin-5-yl)(1-(1-(trifluoromethyl)cyclopropyl)-1H-1,2,3-triazol-4-yl)methyl)amino)-4-(neopentylamino)quinoline-3-carbonitrile] | – | – | IC50 (Human Cot; [3]): 44 nM; EC50 (TNFα; [4]): 324 nM
Cn1ncc2c([C@H](Nc3cc(C#N)c4ncc(C#N)c(NCC(C)(C)C)c4c3)c3cn(C4CC4)nn3)cccc21 [Example 609, (S)-6-(((1-cyclopropyl-1H-1,2,3-triazol-4-yl)(1-methyl-1H-indazol-4-yl)methyl)amino)-4-(neopentylamino)quinoline-3,8-dicarbonitrile] | 2 | 46 | –
N#Cc1cnc2c(Cl)cc(N[C@H](c3c[nH]nn3)c3cnccc3Cl)cc2c1Nc1cnc(F)c(F)c1 [Example 153, (S)-8-chloro-6-(((4-chloropyridin-3-yl)(1H-1,2,3-triazol-4-yl)methyl)amino)-4-((5,6-difluoropyridin-3-yl)amino)quinoline-3-carbonitrile] | 44 | 3760 | –
Cc1nc(F)ccc1[C@H](Nc1cc(Cl)c2ncc(C#N)c(NCC(C)(C)C)c2c1)c1nnn(C2CC2)c1Cl [Example 662, (S)-8-chloro-6-(((5-chloro-1-cyclopropyl-1H-1,2,3-triazol-4-yl)(6-fluoro-2-methylpyridin-3-yl)methyl)amino)-4-(neopentylamino)quinoline-3-carbonitrile] | 6 | 335 | –
Cc1nc(F)ccc1[C@@H](Nc1cc(Cl)c2ncc(C#N)c(N[C@H](CCC#N)c3ccccc3)c2c1)c1cn(C2CC2)nn1 [Example 438, 8-chloro-4-(((R)-3-cyano-1-phenyl-propyl)amino)-6-(((R)-(1-cyclopropyl-1H-1,2,3-triazol-4-yl)(6-fluoro-2-methylpyridin-3-yl)methyl)amino)-quinoline-3-carbonitrile] | 473 | 1000 | –
C[C@@H](CF)n1cc([C@@H](Nc2cc(C#N)c3ncc(C#N)c(NCC(C)(C)C)c3c2)c2cccc3ncccc23)nn1 [Example 892, 6-(((S)-(1-((S)-1-fluoropropan-2-yl)-1H-1,2,3-triazol-4-yl)(quinolin-5-yl)methyl)amino)-4-(neopentylamino)quinoline-3,8-dicarbonitrile] | – | – | IC50 (Human Cot; [3]): 2 nM; EC50 (TNFα; [4]): 44 nM
Cc1nc(F)ccc1[C@H](Nc1cc(C#N)c2ncc(C#N)c(NCC3C(C)(C)C3(C)C)c2c1)c1cn(C2(C(F)F)CC2)nn1 [Example 845, (S)-6-(((1-(1-(difluoromethyl)-cyclopropyl)-1H-1,2,3-triazol-4-yl)(6-fluoro-2-methylpyridin-3-yl)methyl)amino)-4-(((2,2,3,3-tetramethylcyclopropyl)methyl)-amino)quinoline-3,8-dicarbonitrile] | – | – | IC50 (Human Cot; [3]): 20 nM; EC50 (TNFα; [4]): 1000 nM
N#Cc1cnc2c(Cl)cc(N[C@@H](c3cccnc3)c3c[nH]nn3)cc2c1Nc1cccc(Cl)c1F [Example 257, (S)-8-chloro-4-((3-chloro-2-fluorophenyl)amino)-6-((pyridin-3-yl(1H-1,2,3-triazol-4-yl)methyl)-amino)quinoline-3-carbonitrile] | 6 | 212 | –
CCCN1CCC(n2cc([C@@H](Nc3cc(Cl)c4ncc(C#N)c(Nc5ccc(F)c(Cl)c5)c4c3)c3cncs3)nn2)CC1 [Example 373, (R)-8-chloro-4-((3-chloro-4-fluorophenyl)amino)-6-(((1-(1-propylpiperidin-4-yl)-1H-1,2,3-triazol-4-yl)(thiazol-5-yl)methyl)amino)-quinoline-3-carbonitrile] | 3 | 81 | –
CC(C)(C)CNc1c(C#N)cnc2c(Cl)cc(N[C@H](c3cn(C4CC4)nn3)c3cccn4nccc34)cc12 [Example 422, (S)-8-chloro-6-(((1-cyclopropyl-1H-1,2,3-triazol-4-yl)(pyrazolo[1,5-a]pyridin-4-yl)methyl)amino)-4-(neopentylamino)-quinoline-3-carbonitrile] | 2 | 57 | –
CC(C)(C)CNc1c(C#N)cnc2c(C#N)cc(N[C@H](c3cn(C4CCN(C(C)(C)C)CC4)nn3)c3cccc4ncsc34)cc12 [Example 420, (S)-6-((benzo[d]thiazol-7-yl(1-(1-(tert-butyl)piperidin-4-yl)-1H-1,2,3-triazol-4-yl)methyl)amino)-4-(neopentyl-amino)quinoline-3,8-dicarbonitrile] | 2 | 25 | –
Cc1scnc1[C@H](Nc1cc(Cl)c2ncc(C#N)c(NCC(C)(C)C)c2c1)c1cn(C2(C(F)F)CC2)nn1 [Example 620, (S)-8-chloro-6-(((1-(1-(difluoromethyl)cyclo-propyl)-1H-1,2,3-triazol-4-yl)(5-methylthiazol-4-yl)methyl)amino)-4-(neopentylamino)quinoline-3-carbonitrile] | 102 | 1000 | –
CC(C)(C)CNc1c(C#N)cnc2c(Cl)cc(N[C@@H](c3cnc4ccccc4c3)c3cn(C4(C(F)(F)F)CC4)nn3)cc12 [Example 629, (S)-8-chloro-4-(neopentylamino)-6-((quinolin-3-yl(1-(1-(trifluoromethyl)cyclopropyl)-1H-1,2,3-triazol-4-yl)methyl)amino)quinoline-3-carbonitrile] | 181 | 1000 | –
CN1Cc2c(cccc2[C@H](Nc2cc(Cl)c3ncc(C#N)c(NCC(C)(C)C)c3c2)c2cn(C3(C(F)F)CC3)nn2)C1=O [Example 737, (S)-8-chloro-6-(((1-(1-(difluoromethyl)cyclopropyl)-1H-1,2,3-triazol-4-yl)(2-methyl-1-oxoisoindolin-4-yl)methyl)amino)-4-(neopentylamino)quinoline-3-carbonitrile] | 3 | 91 | –
Cc1ncccc1[C@H](Nc1cc(Cl)c2ncc(C#N)c(Nc3ccc(Cl)c(Cl)c3F)c2c1)c1cn(C2CCN(C(C)(C)C)CC2)nn1 [Example 233, (S)-6-(((1-(1-(tert-butyl)piperidin-4-yl)-1H-1,2,3-triazol-4-yl)(2-methylpyridin-3-yl)methyl)amino)-8-chloro-4-((3,4-dichloro-2-fluorophenyl)amino)quinoline-3-carbonitrile] | 8 | 114 | –
CC(C)n1cc([C@@H](Nc2cc(Cl)c3ncc(C#N)c(N[C@H](CCO)c4ccccc4)c3c2)c2cccnc2)nn1 [Example 185, 8-chloro-4-(((R)-3-hydroxy-1-phenylpropyl)amino)-6-(((S)-(1-isopropyl-1H-1,2,3-triazol-4-yl)(pyridin-3-yl)methyl)amino)quinoline-3-carbonitrile] | 305 | 9740 | –
[2H]C([2H])([2H])C([2H])([2H])[C@H](Nc1c(C#N)cnc2c(Cl)cc(N[C@@]([2H])(c3ccc(F)nc3)c3cn(C4CC4)nn3)cc12)c1ccccc1 [Example 107, 8-chloro-6-(((S)-(1-cyclopropyl-1H-1,2,3-triazol-4-yl)(6-fluoropyridin-3-yl)methyl-d)amino)-4-(((S)-1-phenyl-propyl-2,2,3,3,3-d5)amino)quinoline-3-carbonitrile] | 182 | > 10000 | –
N#Cc1cnc2c(Cl)cc(N[C@@H](c3cscn3)c3cn(CCN)nn3)cc2c1Nc1ccc(F)c(Cl)c1 [Example 359, (S)-6-(((1-(2-arninoethyl)-1H-1,2,3-triazol-4-yl)(thiazol-4-yl)methyl)-amino)-8-chloro-4-((3-chloro-4-fluorophenyl)amino)quinoline-3-carbonitrile] | – | – | IC50 (Human Cot; read-out: IC50 HTRF, Cot HTRF (TR-FRET) biochemical assay): 3 nM; EC50 (TNFα; read-out: EC50 TNF, LPS-stimulated human monocytes, TNFα): 729 nM
CC(C)(C)CNc1c(C#N)cnc2c(Cl)cc(N[C@H](c3cn(C4CC4)nn3)c3csc4cnccc34)cc12 [Example 738, (S)-8-chloro-6-(((1-cyclopropyl-1H-1,2,3-triazol-4-yl)(thieno[2,3-c]pyridin-3-yl)methyl)amino)-4-(neopentylamino)quinoline-3-carbonitrile] | 2 | 40 | –
CC(C)(C)N1CCC(n2cc([C@@H](Nc3cc(Cl)c4ncc(C#N)c(Nc5ccc(F)c(Cl)c5)c4c3)c3ccc4c(c3)NCC4)nn2)CC1 [Example 51, (S)-6-(((1-(1-(tert-butyl)piperidin-4-yl)-1H-1,2,3-triazol-4-yl)(indolin-6-yl)methyl)amino)-8-chloro-4-((3-chloro-4-fluorophenyl)amino)quinoline-3-carbonitrile] | 55 | 1560 | –
CCn1ccc2c([C@H](Nc3cc(Cl)c4ncc(C#N)c(NCC(C)(C)C)c4c3)c3cn(C4(C)CC4)nn3)cccc2c1=O [Example 773, (S)-8-chloro-6-(((2-ethyl-1-oxo-1,2-dihydroisoquinolin-5-yl)(1-(1-methylcyclopropyl)-1H-1,2,3-triazol-4-yl)methyl)amino)-4-(neopentylamino)quinoline-3-carbonitrile] | 2 | 35 | –
Cc1nc(F)ccc1[C@H](Nc1cc(C#N)c2ncc(C#N)c(NCC(C)(C)C)c2c1)c1cn(C2(C(N)=O)CCC2)nn1 [Example 494, (S)-1-(4-(((3,8-dicyano-4-(neopentyl-amino)quinolin-6-yl)amino)(6-fluoro-2-methylpyridin-3-yl)methyl)-1H-1,2,3-triazol-1-yl)cyclobutane-1-carboxamide] | 1 | 444 | –
